According to PubChem BioAssay AID1918941 (Molecular Pharmacology Branch, DTP, NCI, 2023):

System: SW 1271 complex spheroids, viability
Assay: Anticancer human tumor SW 1271 cell line growth inhibition [LSD1];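 further: spheroids exposed to agents for 7 days before luminescence read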
Conditions: for IC50: curve of first compound; for viability, T/C: stronger effect = lower value; active means viability on the fitted dose curve at most 10% of control; inactive means the rest
Source text: Multicellular complex tumor spheroid response to LSD1 Inhibitor Iadademstat in combination with a variety of drugs and investigational agents in selected tumor cell lines
The current study was undertaken to assess response to LSD1 inhibitors in combination with standard-of-care drugs and investigational agents in solid tumor complex spheroid models as well as in the K-562 leukemia. Complex spheroids include a stromal component modeled by human endothelial cells (HUVEC) and fibroblasts modeled by human mesenchymal stem cells (MSCs). The concentration ranges selected for each drug and investigational agent were based upon clinically achievable concentrations if the clinical Cmax of the agent was known.
Compounds. The drugs and investigational agents used in this study are listed on Table 1. All of the agents used, including staurosporine (NSC755774) and gemcitabine (NSC613327), were obtained from the Developmental Therapeutics Program, NCI. FDA-approved anticancer drugs are available from the NCI at http://dtp.nci.nih.gov/branches/dscb/oncology_drugset_explanation.html. Drugs and investigational agents were >95% pure by proton nuclear magnetic resonance (NMR) and liquid chromatography/mass spectrometry (LC/MS). Stock solutions were prepared at 400x in DMSO, stored at -70 degrees C, and diluted in fresh medium prior to their use. The final concentration of DMSO in cell culture wells never exceeded 0.25% (v/v). The FDA-approved anticancer drug set is available from the Developmental Therapeutics Program at https://dtp.cancer.gov/organization/dscb/obtaining/available_plates.htm. All drugs and investigational agents were tested over a range starting from a high concentration at or near the clinical Cmax and decreasing in half-log increments. If the clinical Cmax for an agent had not been determined, the highest concentration tested was 10 microM.
Cell Lines. The patient-derived cancer cell (PDC) lines: 292921-168-R-J2-PDC, K24384-001-R-PDC, and 521955-158-R2-J5-PDC pancreatic carcinomas, 556581-035-R-J1 ovarian carcinoma, 324938-238-R-J1-PDC, 855422-203-R-J1-PDC and 883617-216-R-J1-PDC urothelial bladder carcinomas, 743489-274-T-PDC renal cell carcinoma, 138582-R-J1 Merkel cell tumor, K60290-347-R-J1 and K57222-313-R-J1-PDC glioblastomas, 653999-131-R-J2-PDC, LG0703-F948-PDC, and 349418-098-R-PDC non-small cell lung carcinomas, 885512-296-R-J2-PDC, 171881-019-R-J1-PDC breast carcinomas and 186277-243-T-J2-PDC and 233499-124-R-J2-PDC colon carcinomas were obtained from the NCI Patient-Derived Models Repository (PDMR, https://pdmr.cancer.gov). The established cell lines NCI/ADR-RES (RRID:CVCL_14520 and OVCAR-5 (RRID:CVCL_1628) ovarian carcinomas, 786-O (RRID:CVCL_1051) and A498 (RRID:CVCL_A498) renal cell carcinoma, NCI-H211 (ATCC, cat. CRL-5824; RRID:CVCL_1529), NCI-H196 (ATCC, cat. CRL-5823, RRID:CVCL_1509), SW 1271 (ATCC, cat. CRL-2177, RRID:CVCL_1716) and NCI-H1876 (ATCC, cat. CRL-5902, RRID:CVCL_1503) small cell lung carcinomas, MDA-MB-231 (RRID:CVCL_0062) and MDA-MB-468 (RRID:CVCL_0419)breast carcinomas (10-12). Pooled donor human umbilical vein endothelial cells (HUVEC, Lonza, cat. CC-2519) and human mesenchymal stem cells (hMSC, Lonza, cat. PT-2501) were purchased from Lonza (Walkersville, MD).
Cell Culture. All cells were maintained in an incubator at 37 degrees C and 5% CO2 with 95% humidity. The PDC lines were cultured according to standard operating procedures established by the NCI PDMR (https://pdmr.cancer.gov). Briefly all PDCs were thawed and cultured in Matrigel-coated flasks prepared with a working solution of 1X Ham's F-12 nutrient mix, without supplementation (Invitrogen, Waltham, MA, cat. 11765054), 100 U/mL penicillin-streptomycin (Invitrogen, cat. 15140122), and 2.5% Matrigel (Corning Inc., Corning, NY, cat. 354248) for the first three passages. […]

[1] = second compound 0.1 µM, first compound 0.00316 µM
[2] = second compound 0.1 µM, first compound 0.01 µM
[3] = second compound 0.1 µM, first compound 0.0316 µM
[4] = second compound 0.1 µM, first compound 0.1 µM
[5] = second compound 0.316 µM, first compound 0.00316 µM
[6] = second compound 0.316 µM, first compound 0.01 µM
[7] = second compound 0.316 µM, first compound 0.0316 µM
[8] = second compound 0.316 µM, first compound 0.1 µM
[9] = second compound 1 µM, first compound 0.00316 µM
[10] = second compound 1 µM, first compound 0.01 µM
[11] = second compound 1 µM, first compound 0.0316 µM
[12] = second compound 1 µM, first compound 0.1 µM
[13] = second compound 3.16 µM, first compound 0.00316 µM
[14] = second compound 3.16 µM, first compound 0.01 µM
[15] = second compound 3.16 µM, first compound 0.0316 µM
[16] = second compound 3.16 µM, first compound 0.1 µM
[17] = second compound 10 µM, first compound 0.00316 µM
[18] = second compound 10 µM, first compound 0.01 µM
[19] = second compound 10 µM, first compound 0.0316 µM
[20] = second compound 10 µM, first compound 0.1 µM

Cn1ncnc1C1c2n[nH]c(=O)c3cc(F)cc(c23)NC1c1ccc(F)cc1 (stereo not given) + NC1CCC(NC2CC2c2ccccc2)CC1
inactive: viability, T/C (second compound 0.1 µM, first compound 0.000316 µM) 93% | viability, T/C (second compound 0.1 µM, first compound 0.001 µM) 104% | viability, T/C [1] 88.4% | viability, T/C [2] 94.9% | viability, T/C [3] 88.6% | viability, T/C [4] 90.4% | viability, T/C (second compound 0.316 µM, first compound 0.000316 µM) 86.9% | viability, T/C (second compound 0.316 µM, first compound 0.001 µM) 98.3% | viability, T/C [5] 103% | viability, T/C [6] 91.8% | viability, T/C [7] 82.8% | viability, T/C [8] 86.8% | viability, T/C (second compound 1 µM, first compound 0.000316 µM) 91.7% | viability, T/C (second compound 1 µM, first compound 0.001 µM) 90.9% | viability, T/C [9] 83.5% | viability, T/C [10] 84.3% | viability, T/C [11] 85% | viability, T/C [12] 83% | viability, T/C (second compound 3.16 µM, first compound 0.000316 µM) 83.4% | viability, T/C (second compound 3.16 µM, first compound 0.001 µM) 87.7% | viability, T/C [13] 79.9% | viability, T/C [14] 98.1% | viability, T/C [15] 76.5% | viability, T/C [16] 93.2% | viability, T/C (second compound 10 µM, first compound 0.000316 µM) 98.6% | viability, T/C (second compound 10 µM, first compound 0.001 µM) 86.7% | viability, T/C [17] 83.5% | viability, T/C [18] 88.1% | viability, T/C [19] 85.3% | viability, T/C [20] 81.7%
> 100 nM: IC50 (second compound 0.1 µM) | IC50 (second compound 0.316 µM) | IC50 (second compound 1 µM) | IC50 (second compound 3.16 µM) | IC50 (second compound 10 µM)

CCN(c1cc(-c2ccc(CN3CCOCC3)cc2)cc(C(=O)NCc2c(C)cc(C)[nH]c2=O)c1C)C1CCOCC1 + NC1CC1c1ccc(-c2cccc(O)c2)cc1
inactive: viability, T/C (second compound 0.1 µM, first compound 0.00949 µM) 83.2% | viability, T/C (second compound 0.1 µM, first compound 0.03 µM) 82.9% | viability, T/C (second compound 0.1 µM, first compound 0.0949 µM) 86% | viability, T/C (second compound 0.1 µM, first compound 0.3 µM) 72.4% | viability, T/C (second compound 0.1 µM, first compound 0.949 µM) 68.2% | viability, T/C (second compound 0.1 µM, first compound 3 µM) 60% | viability, T/C (second compound 0.316 µM, first compound 0.00949 µM) 83.9% | viability, T/C (second compound 0.316 µM, first compound 0.03 µM) 82.2% | viability, T/C (second compound 0.316 µM, first compound 0.0949 µM) 74.6% | viability, T/C (second compound 0.316 µM, first compound 0.3 µM) 72.4% | viability, T/C (second compound 0.316 µM, first compound 0.949 µM) 71.3% | viability, T/C (second compound 0.316 µM, first compound 3 µM) 57.3% | viability, T/C (second compound 1 µM, first compound 0.00949 µM) 82.1% | viability, T/C (second compound 1 µM, first compound 0.03 µM) 78.4% | viability, T/C (second compound 1 µM, first compound 0.0949 µM) 83.8% | viability, T/C (second compound 1 µM, first compound 0.3 µM) 64.8% | viability, T/C (second compound 1 µM, first compound 0.949 µM) 59.4% | viability, T/C (second compound 1 µM, first compound 3 µM) 56.3% | viability, T/C (second compound 3.16 µM, first compound 0.00949 µM) 80.6% | viability, T/C (second compound 3.16 µM, first compound 0.03 µM) 85.1% | viability, T/C (second compound 3.16 µM, first compound 0.0949 µM) 78.1% | viability, T/C (second compound 3.16 µM, first compound 0.3 µM) 65.7% | viability, T/C (second compound 3.16 µM, first compound 0.949 µM) 63.7% | viability, T/C (second compound 3.16 µM, first compound 3 µM) 56.2% | viability, T/C (second compound 10 µM, first compound 0.00949 µM) 66.9% | viability, T/C (second compound 10 µM, first compound 0.03 µM) 66.8% | viability, T/C (second compound 10 µM, first compound 0.0949 µM) 64.8% | viability, T/C (second compound 10 µM, first compound 0.3 µM) 51.8% | viability, T/C (second compound 10 µM, first compound 0.949 µM) 58.7% | viability, T/C (second compound 10 µM, first compound 3 µM) 58.2%
> 3000 nM: IC50 (second compound 0.1 µM) | IC50 (second compound 0.316 µM) | IC50 (second compound 1 µM) | IC50 (second compound 3.16 µM) | IC50 (second compound 10 µM)

O=C(C=Cn1cnc(-c2cc(C(F)(F)F)cc(C(F)(F)F)c2)n1)NNc1cnccn1 + NC1CCC(NC2CC2c2ccccc2)CC1
135 nM: IC50 (second compound 0.1 µM)
215 nM: IC50 (second compound 3.16 µM)
203 nM: IC50 (second compound 10 µM)
189 nM: IC50 (second compound 0.316 µM)
inactive: viability, T/C [1] 86.6% | viability, T/C [2] 91.2% | viability, T/C [3] 72.9% | viability, T/C [4] 50.2% | viability, T/C (second compound 0.1 µM, first compound 0.316 µM) 42.8% | viability, T/C (second compound 0.1 µM, first compound 1 µM) 24.6% | viability, T/C [5] 84.5% | viability, T/C [6] 77.3% | viability, T/C [7] 81.3% | viability, T/C [8] 53.5% | viability, T/C (second compound 0.316 µM, first compound 0.316 µM) 46% | viability, T/C (second compound 0.316 µM, first compound 1 µM) 27.4% | viability, T/C [9] 90.5% | viability, T/C [10] 101% | viability, T/C [11] 88.9% | viability, T/C [12] 62.4% | viability, T/C (second compound 1 µM, first compound 0.316 µM) 47% | viability, T/C (second compound 1 µM, first compound 1 µM) 18.5% | viability, T/C [13] 81.9% | viability, T/C [14] 79.3% | viability, T/C [15] 92.1% | viability, T/C [16] 54.3% | viability, T/C (second compound 3.16 µM, first compound 0.316 µM) 48.3% | viability, T/C (second compound 3.16 µM, first compound 1 µM) 23.7% | viability, T/C [17] 87.5% | viability, T/C [18] 86.6% | viability, T/C [19] 79.1% | viability, T/C [20] 59% | viability, T/C (second compound 10 µM, first compound 0.316 µM) 44.8% | viability, T/C (second compound 10 µM, first compound 1 µM) 29.5%
229 nM: IC50 (second compound 1 µM)
